Results on 28 compounds are retold here after patent publication US9115101B2 (Genentech, Inc., priority 2012, dated 2015).

Molecules are shown by their SMILES.

One experiment addresses T1, RORc ligand binding domain (Homo sapiens, UniProt P51449).
T1 construct: host or cells: E. coli
T1 sequence (P51449 269-508 limits assumed): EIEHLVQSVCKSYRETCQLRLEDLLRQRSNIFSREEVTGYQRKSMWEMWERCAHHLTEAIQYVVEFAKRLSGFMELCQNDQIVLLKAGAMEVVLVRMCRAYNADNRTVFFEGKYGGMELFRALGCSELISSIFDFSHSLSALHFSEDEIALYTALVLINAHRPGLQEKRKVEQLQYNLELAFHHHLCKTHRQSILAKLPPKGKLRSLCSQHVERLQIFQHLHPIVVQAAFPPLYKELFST
The experiment is described as follows: In Vitro RORc Ligand Binding Assay (25-[3H]hydroxycholesterol radioligand filtration). The settings on record: In Vitro RORc Ligand Binding Assay; Table 4; read-out: RORc IC50.
By IC50 is commonly meant the concentration that inhibits the measured activity by half. With `CC(=O)N1CCN(c2ccc(CN3CCOCC(c4ccccc4)S3(=O)=O)c(F)c2)CC1` (single isomer, unassigned) [Example 23, 1-{4-[4-(4,4-Dioxo-3-phenyl-[1,4,5]oxathiazepan-5-ylmethyl)-3-fluoro-phenyl]-piperazin-1-yl}-ethanone], the IC50 was 0.045 µM.
For `CC(=O)N1CCN(c2ccc(CN3[C@@H](C)CCC(c4ccc(Cl)cc4)S3(=O)=O)c(F)c2)CC1` (single isomer, unassigned) [Example 174], the IC50 turned out to be 0.077 µM.
Regarding `C[C@H]1CCC(c2ccccc2)S(=O)(=O)N1Cc1ccc(N2CCC(CS(C)(=O)=O)CC2)cc1F` (single isomer, unassigned) [Example 105], the IC50 was 0.018 µM.
The same measure, in the same setting: as for `C[C@H]1CCC(c2ccccc2)S(=O)(=O)N1Cc1ccc(N2CCC(/C(N)=N/O)CC2)cc1F` (stereo partly drawn) [Example 233, 1-[3-Fluoro-4-((3S)-methyl-1,1-dioxo-6-phenyl-[1,2]thiazinan-2-ylmethyl)-phenyl]-N-hydroxy-piperidine-4-carboxamidine], the figure is 0.039 µM.
The same measure, in the same setting: as for `C[C@H]1CCC(c2ccccc2)S(=O)(=O)N1Cc1ccc(N2CC3(CCOCC3)C2)cc1F` (single isomer, unassigned) [Example 84], the figure is 0.023 µM; as for `CC(=O)N1CCN(c2ccc(CN3[C@@H](C)COCC(c4ccccc4)S3(=O)=O)c(F)c2)CC1` (single isomer, unassigned) [Example 24], 0.182 µM.
In the case of `CC(=O)N1CCN(c2ccc(CN3C(C)(C)CCC(c4ccccc4)S3(=O)=O)c(F)c2)CC1` (single isomer, unassigned) [Example 13, 1-{4-[4-(3,3-Dimethyl-1,1-dioxo-6-phenyl-[1,2]thiazinan-2-ylmethyl)-3-fluoro-phenyl]-piperazin-1-yl}-ethanone], the half-maximal inhibitory concentration (IC50) worked out at 0.142 µM.
Take `C[C@@H]1CCC(c2ccccc2)S(=O)(=O)N1Cc1ccc(OC2CCN(S(C)(=O)=O)CC2)nc1` (single isomer, unassigned) [Example 51]: the IC50 came out at 1.4 µM.
The same measure, in the same setting: as for `C[C@H]1CCC(c2ccccc2)S(=O)(=O)N1Cc1ccc(N[C@H]2CC[C@@H](C#N)CC2)cc1F` (single isomer, unassigned) [Example 97], the figure is 0.04 µM; as for `O=c1[nH]nc(C2CCN(c3ccc(CN4CCCCC(c5ccccc5)S4(=O)=O)cc3)CC2)o1` (single isomer, unassigned) [Example 343, 5-{1-[4-(1,1-Dioxo-7-phenyl-[1,2]thiazepan-2-ylmethyl)-phenyl]-piperidin-4-yl}-3H-[1,3,4]oxadiazol-2-one], 0.449 µM; as for `CC(=O)N1CCN(c2ccc(CN3[C@@H](C)CCC(c4ccccc4)S3(=O)=O)c(F)c2)C[C@@H]1C(=O)O` (stereo partly drawn) [Example 261, 1-Acetyl-4-[3-fluoro-4-((3S)-methyl-1,1-dioxo-6-phenyl-[1,2]thiazinan-2-ylmethyl)-phenyl]-piperazine-2-carboxylic acid], 0.379 µM.
As to `C[C@H]1CCC(c2ccccc2)S(=O)(=O)N1Cc1ccc(OC2CCS(=O)(=O)CC2)cc1F` (single isomer, unassigned) [Example 38], the IC50 was found to be 0.135 µM.
Still for that read-out and setting: as for `C[C@H]1CCC(c2ccccc2)S(=O)(=O)N1Cc1ccc(N2CCN(C(=O)C3CC3)CC2)cc1` (single isomer, unassigned) [Example 60], the figure is 0.015 µM; as for `CC(=O)N1CCN(c2ccc(CN3[C@@H](C)CCC(c4ccccc4)S3(=O)=O)c(F)c2)C[C@@H]1C` (stereo partly drawn) [Example 238, 1-{4-[3-Fluoro-4-((3S)-methyl-1,1-dioxo-6-phenyl-[1,2]thiazinan-2-ylmethyl)-phenyl]-2-methyl-piperazin-1-yl}-ethanone], 0.008 µM; as for `CC(=O)N1CCN(c2ccc(CN3[C@@H](C)CCC(c4ccccc4)S3(=O)=O)cn2)CC1` (single isomer, unassigned) [Example 43], 1.5 µM.
Still for that read-out and setting: as for `CON(C)C(=O)C1CCN(c2ccc(CN3[C@@H](C)CCC(c4ccccc4)S3(=O)=O)c(F)c2)CC1` (single isomer, unassigned) [Example 146], the figure is 0.142 µM; as for `C[C@H]1CCC(c2ccccc2)S(=O)(=O)N1Cc1ccc(C(=O)N(C)CC2CCCO2)cc1` (stereo partly drawn) [Example 283, N-Methyl-4-((3S)-methyl-1,1-dioxo-6-phenyl-[1,2]thiazinan-2-ylmethyl)-N-(tetrahydro-furan-2-ylmethyl)-benzamide], 1.31 µM; as for `C[C@H]1CCC(c2ccccc2)S(=O)(=O)N1Cc1ccc(N2CCC3(CC2)COC3)cc1F` (single isomer, unassigned) [Example 100], 0.012 µM.
On the same count and under the same terms, as for `C[C@H]1CCC(c2ccccc2)S(=O)(=O)N1Cc1ccc(C(=O)NC2CCC(O)CC2)cc1` (stereo partly drawn) [Example 274, N-(4-Hydroxy-cyclohexyl)-4-((3S)-methyl-1,1-dioxo-6-phenyl-[1,2]thiazinan-2-ylmethyl)-benzamide], the figure is 4.41 µM.
For the compound `C[C@H]1CCC(c2ccccc2)S(=O)(=O)N1Cc1ccc(C(=O)NCCCN2CCCC2=O)cc1` (stereo partly drawn) [Example 272, 4-((3S)-Methyl-1,1-dioxo-6-phenyl-[1,2]thiazinan-2-ylmethyl)-N-[3-(2-oxo-pyrrolidin-1-yl)-propyl]-benzamide], the half-maximal inhibitory concentration (IC50) was 2.89 µM.
Same read-out and setting: as for `C[C@H]1CCC(c2ccccc2)S(=O)(=O)N1Cc1ccc(N2CCC(n3ncnn3)CC2)cc1F` (single isomer, unassigned) [Example 244], the figure is 0.024 µM.
The same measure, in the same setting: as for `CC(=O)N1CCN(c2ccc(CN3[C@@H](C)CCC(c4cccc(C#N)c4)S3(=O)=O)c(F)c2)CC1` (single isomer, unassigned) [Example 202], the figure is 0.738 µM.
Same read-out and setting: as for `CC(=O)N1CCN(c2ccc(CN3CC(C)CCC(c4ccccc4)S3(=O)=O)c(F)c2)CC1` (single isomer, unassigned) [Example 340, 1-{4-[3-Fluoro-4-(4-methyl-1,1-dioxo-7-phenyl-[1,2]thiazepan-2-ylmethyl)-phenyl]-piperazin-1-yl}-ethanone], the figure is 0.054 µM; as for `CS(=O)(=O)N1CCC(Oc2ccc(CN3CCOCC(c4ccccc4)S3(=O)=O)c(F)c2)CC1` (single isomer, unassigned) [Example 57, 5-(2-fluoro-4-((1-(methylsulfonyl)piperidin-4-yl)oxy)benzyl)-3-phenyl-1,4,5-oxathiazepane 4,4-dioxide], 0.014 µM.

Still in this experiment, the particulars now being: read-out: RORc IC50.
For the compound `C[C@H]1CCC(c2ccccc2)S(=O)(=O)N1Cc1ccc(N2CCN3C(=O)CNC(=O)[C@@H]3C2)cc1F` (stereo partly drawn) [Example 401, (S)-8-[3-Fluoro-4-((3S)-methyl-1,1-dioxo-6-phenyl-[1,2]thiazinan-2-ylmethyl)-phenyl]-hexahydro-pyrazino[1,2-a]pyrazine-1,4-dione], the IC50 turned out to be 2.79 µM.
On the same count and under the same terms, as for `C[C@H]1CCC(c2ccccc2)S(=O)(=O)N1Cc1ccc(NC(=O)C2CN(S(C)(=O)=O)C2)cc1F` (stereo partly drawn) [Example 458, 1-Methanesulfonyl-azetidine-3-carboxylic acid [3-fluoro-4-((3S)-methyl-1,1-dioxo-6-phenyl-[1,2]thiazinan-2-ylmethyl)-phenyl]-amide], the figure is 0.098 µM.
Same read-out and setting: as for `C[C@H]1CCC(c2ccccc2)S(=O)(=O)N1Cc1ccc(N2CCC(N3CCCC3=O)CC2)cc1F` (stereo partly shown), the figure is 0.878 µM; as for `C[C@H]1CCC(c2ccccc2)S(=O)(=O)N1Cc1ccc(N2CCN3C(=O)OCC3C2)cc1F` (single isomer, unassigned) [Example 418], 0.129 µM.
